Patent US11421349B2, “Photoactivatable fibers and fabric media” (KLOX TECHNOLOGIES INC., priority 2014, dated 2022)

Assays:
Type in all cases: physicochemical
[1] = Effect of addition of a lubricant on the fluorescence emission of photoactivatable (doped) fibers; conditions: same concentration, lurol oil added, FIG. 5B
Excerpt: In the case of low concentrations of chromophore it can slightly red shift, and reduces bleaching time considerably. In higher concentrations of chromophore it red shifts, as well as increase fluorescence. The most effect seems to be around 10 g/L of lurol oil. Initially the fluorescence of Eosin Y doped fibers was 0.01 (FIG. 5A), but with the lurol oil added the fluorescence is boosted to 0.7. A comparison was done of Eosin Y and Fluorescein at the same concentration with lurol oil added.

[2] = Qualitative analysis of dental fiber doping (fluorescence under blue lamp)
Excerpt: Commercially available dental fibers were dipped into solutions of Eosin […], or 0.1 g/L) for 10 seconds. The fibers were taken out and observed for color, then put under a blue lamp and the fluorescence was observed qualitatively. […] Dental fibers were dipped into solutions of fluorescein (50 […]) for 10 seconds. The fibers were then taken out and observed for color, then put under a blue lamp and the fluorescence was observed qualitatively. […] Dental fibers were dipped into solutions of fluorescein:Eosin […] total chromophore) solution for 10 seconds again. The fibers were then taken out and observed for color, then put under a blue lamp and the fluorescence was observed qualitatively.

[3] = Effect of addition of a lubricant (lurol oil) on the fluorescence emitted from Eosin Y solution; conditions: 320 μL lurol oil added to 2 mL of 109 μg/g Eosin Y in water
Protocol: The fluorescence of these two solutions was measured to determine if the lurol oil had any effect (FIG. 4).

| photo-degradation compared with Eosin Y [1] | SMILES | fluorescence observed qualitatively under blue lamp ([2]; commercial dental fibers dipped 10 seconds, 300-100 g/L solutions) | fluorescence observed qualitatively under blue lamp ([2]; dental fibers dipped 10 seconds, 10 g/L solution) | fluorescence observed qualitatively under blue lamp ([2]; dental fibers dipped 10 seconds, 50 g/L solution) | photodegradation of Eosin Y solution with lurol oil [3] | shift of the fluorescence of the solution with lurol oil [3] | fluorescence of Eosin Y solution with lurol oil versus without ([3]; FIG. 4) |
| --- | --- | --- | --- | --- | --- | --- | --- |
| photo-degrades faster | O=C1OC2(c3ccc(O)cc3Oc3cc(O)ccc32)c2ccccc21 [fluorescein] |  |  |  |  |  |  |
|  | O=C([O-])c1ccccc1-c1c2cc(Br)c(=O)c(Br)c-2oc2c(Br)c([O-])c(Br)cc12.[Na+].[Na+] [Eosin Y, 2′,4′,5′,7′-tetrabromo-fluorescein, dianion] | little fluorescence | significant increase in fluorescence | showed fluorescence | barely photodegraded | red shifted | almost twice as fluorescent |
